pIC50: −log10 of the molar value. Values joined by “and” are separate entries in the source; they are usually repeats but may differ in a detail not shown here. Identical values can stand only once. Like-named read-outs stand apart in the source and are kept apart here.
Tests used:
Format in all cases: cell-based, Hepatitis B virus
[1] = test system: precore (G1896A) recombinant HBV-baculovirus; assay: Antiviral testing of the precore mutant (G1896A) HBV baculovirus in HepG2 cells (Example 17); conditions: for pIC50: read-out: IC50, single experiments, EC RC
Experimental: (§1) HepG2 cells were seeded at approximately 20-40% confluency and then were grown for 16-24 hours before infection. On the day of infection, triplicate plates of cells were trypsinized, and viable cell number was determined with a hemocytometer using Trypan blue exclusion. Average cell counts were calculated and used to determine the volume of high-titer viral stock necessary to infect cells at the indicated moi. HepG2 cells were washed one time with serum-free MEM to remove traces of serum. Baculovirus was diluted into MEM without serum to achieve the appropriate moi using volumes of 1.0, 0.5, and 0.25 ml to infect 100-mm, 60 mm, and 35-mm dishes, respectively. Baculovirus was adsorbed to HepG2 cells for one hour at 37° C. with gentle rocking every 15 minutes to ensure that the inoculum was evenly distributed. The inoculum was then aspirated and HepG2 cells were washed two times with phosphate-buffered saline and refed MEM-FBS with or without various concentrations of agents.
(§2) HBV core particles were isolated from the cytoplasmic fraction of HepG2 cells lysed in 0.5% w/v NP-40. Cytoplasmic extracts were adjusted to 10 mmol/l McC12 and unprotected DNA was removed by an incubation to […] for 1.5 hours at 37° C. Following sequential phenol and chloroform extractions, nucleic acids were recovered by ethanol precipitation. Nucleic acids were resuspended in 50 μl/l TE (10 mmol/l Tris, 1 mmol/l ethylenedianinetetraacetic acid), normalized by OD260, and digested with 100 μg/ml RNase (Boehringer Mannheim, Indianapolis, Ind.) for one hour at 37° C. before analysis by electrophoresis and Southern blotting. A BioRad GS-670 imaging densitometer and the Molecular Analyst software (BioRad, Hecules Calif.) was used to analyze suitable exposures of Southern blots. Densitometry data was fitted to logistic dose response curves using the TableCurve2D software package from Jandel Scientific. Logistic dose response equations were used to calculate IC50 and IC90 values and co-efficients of variation.
(§3) Conditioned medium was collected from HepG2 cells and subjected to centrifugation at 6,000 g for five minutes to remove cellular debris. HBV particles were precipitated with 10% w/v PEG 8000 and were concentrated by centrifugation at 12,000 ×g. Viral pellets were resuspended us 1 ml of MEM-FBS and divided into two aliquots. One set of aliquots was treated with 750 μg/ml Pronase for one hour and then with […] DNase 1 for one hour. Both sets of aliquots were then digested with Proteinase K, and extracted with phenol and chloroform. DNA was precipitated with 0.1 volume of 3 mol/l sodium acetate and 1 volume of isopropanol. Ten micrograms of transfer RNA was added as a carrier during precipitation. Pellets were resuspended in 25 μl of TE and digested with 0.5 mg/ml RNase for one hour. DNA was then analyzed by electrophoresis and Southern blotting.
(§4) 3TC and PCV were a gift from Klaus Esser, SmithKline Beecham, Collegeville, Pa. PMEA was obtained from Gilead (Foster City, Calif.). 3TC was resuspended in sterile water, aliquoted, and frozen at −20° C. to avoid repeated freezing and thawing of the drug. PMEA was resuspended in sterile water after the pH was adjusted to 7.0 with NaOH. PCV was resuspended in dimethyl sulphoxide. Medium containing 3TC was prepared daily as needed using fresh aliquots of 3TC. In experiments in which 3TC treatment was initiated after viral infection, HepG2 cells were exposed to the indicated concentration of 3TC immediately after infection with HBV baculovirus. In experiments utilizing pretreatment with 3TC, cells were fed medium containing 3TC 16 hours prior to HBV baculovirus infection, HBV baculovirus infection was also carried out in medium containing 3TC, and cells were refed fresh medium containing 3TC immediately after completion of the infection and washing procedures. Treatment with PMEA and PCV were conducted in a similar manner.

L526M HBV baculovirus = assay: Antiviral testing with L526M HBV baculovirus in HepG2 cells (Example 15); conditions: for inhibition at 1 µM / pIC50: Hepatitis B virus
Experimental: as §1, §2, §4

[2] = test system: L526M/M550V HBV baculovirus; assay: Antiviral testing with L526M/M550V HBV baculovirus in HepG2 cells (Example 15); conditions: for inhibition at 1 µM / pIC50: Hepatitis B virus, dual (L526M/M550V) HBV; for inhibition at 1 µM: HepG2, ds HBV DNA band density vs untreated controls, estimated from fitted curve, negative = stimulation; for pIC50: ds HBV DNA bands, HepG2 cells
Experimental: as §1, §2, §4

M550I HBV baculovirus = assay: Antiviral testing with M550I HBV baculovirus in HepG2 cells (Example 15); conditions: for inhibition at 1 µM: ds HBV DNA band density vs untreated controls, estimated from fitted curve, negative = stimulation
Experimental: as §1, §2, §4

[3] = test system: wild-type (WT) recombinant HBV-baculovirus; assay: Antiviral testing, wild-type (1.3x genomic length) recombinant HBV-baculovirus in HepG2 cells (Example 17); conditions: for pIC50: individual experiments behind the average; for IC50: averages where footnoted
Experimental: as §1, §2, §3, §4

[4] = test system: wild-type HBV baculovirus; assay: Antiviral testing with wild-type HBV baculovirus in HepG2 cells (Example 15, Southern blot densitometry); conditions: for inhibition at 1 µM / pIC50: Hepatitis B virus, wt HBV; for inhibition at 1 µM: HepG2, ds HBV DNA band density vs untreated controls, estimated from fitted curve, negative = stimulation of replication; for pIC50: ds HBV DNA bands, HepG2 cells
Experimental: as §1, §2, §4
The dose effect of 3TC and PMEA, on wild-type HBV is shown graphically in FIG. 6 (A, B,) and a Southern Blot of intracellular HBV replicative intermediates and extracellular virus produced by HepG2 cells transduced with wild-type HBV-baculovirus in the presence of increasing concentrations of PCV is shown in FIG. 6C and the IC50 for each antiviral agent is shown in Table 2.

[5] = test system: L526M/M550V recombinant HBV-baculovirus; assay: Antiviral testing, L526M/M550V recombinant HBV-baculovirus in HepG2 cells (Example 17); conditions: intracellular single-stranded HBV DNA, NDR = no dose response
Experimental: as §1
(§5) HBV core particles were isolated from the cytoplasmic fraction of HepG2 cells lysed in 0.5% w/v NP-40. […]
(§6) Conditioned medium was collected from HepG2 cells and subjected to centrifugation at 6,000 g for five minutes to remove cellular debris. […] DNA was then analyzed by electrophoresis and Southern blotting. […]

[6] = test system: Precore/M550I recombinant HBV-baculovirus; assay: Antiviral testing, Precore/M550I recombinant HBV-baculovirus in HepG2 cells (Example 17); conditions: NDR = no dose response
Experimental: as §1, §2
as §3, with “Pellets were resuspended in 25 μl of TE and digested with 0.5 mg/ml RNase for one hour.” left out, “blotting. […]” for “blotting.”

[7] = test system: Precore/L526M/M550V recombinant HBV-baculovirus; assay: Antiviral testing, Precore/L526M/M550V recombinant HBV-baculovirus in HepG2 cells (Example 17); conditions: NDR = no dose response
Experimental: as §1, §2
as §3, with “Pellets were resuspended in 25 μl of TE and digested with 0.5 mg/ml RNase for one hour.” left out, “blotting. […]” for “blotting.”

[8] = test system: any HBV/baculovirus variant encoding the mutations at M550I or L526M/M550V; assay: Southern blots of HBV DNA from HepG2 cells transduced with lamivudine-resistant recombinant HBV-baculovirus variants (Example 17); conditions: intracellular and extracellular HBV DNA, no dose response could be plotted
Experimental: as §1, §5, §6

[9] = test system: M550I recombinant HBV-baculovirus; assay: Antiviral testing, M550I recombinant HBV-baculovirus in HepG2 cells (Example 17); conditions: intracellular single-stranded HBV DNA, NDR = no dose response
Experimental: as §1, §5, §6

[10] = Hepatitis B virus, HepG2, 550 (M550I) HBV
[11] = extracellular relaxed circular HBV DNA
[12] = intracellular single-stranded HBV DNA

Question: What does the source list for `Nc1ccn([C@@H]2CS[C@H](CO)O2)c(=O)n1` [Lamivudine, (−)-b-L-2′,3′-dideoxy-3′-thiacytidine]?
Answer: pIC50 ([1]; Hepatitis B virus, HepG2, Precore (G1896A), extracellular relaxed circular HBV DNA, individual experiments behind the average): 7.92; IC50 ([1]; Hepatitis B virus, HepG2, read-out: IC50 (μM), EC RC, Precore (G1896A), extracellular relaxed circular HBV DNA, averages where footnoted): 0.011 µM; IC50 ([1]; Hepatitis B virus, HepG2, read-out: IC50 (μM), IC SS, Precore (G1896A), intracellular single-stranded HBV DNA, averages where footnoted): 0.0207 µM; pIC50 ([1]; Precore (G1896A), extracellular relaxed circular HBV DNA, individual experiments behind the average): 8.00; IC50 ([1]; Precore (G1896A), intracellular single-stranded HBV DNA, individual experiments behind the average, read-out: IC50, single experiments, IC SS): 14 nM (2×) and 32 nM; inhibition at 1 µM (L526M HBV baculovirus; HepG2, 526 (L526M) HBV, ds HBV DNA band density vs untreated controls, estimated from fitted curve, negative = stimulation, read-out: Inhibition at 1 μM): 85.8%; pIC50 (L526M HBV baculovirus; 526 (L526M) HBV, ds HBV DNA bands, HepG2 cells, read-out: IC50): 7.52; shift in the IC50 compared to the wild-type (L526M HBV baculovirus; L526M vs wild-type, FIG. 7A): > 0.5 log; Resistance Factor (L526M HBV baculovirus; {}): 3; inhibition at 1 µM [2]: -15%; pIC50 [2]: 4.06; Resistance Factor [2]: 9578; inhibition at 1 µM (M550I HBV baculovirus; [10]): 26.7%; pIC50 (M550I HBV baculovirus; Hepatitis B virus, 550 (M550I) HBV, ds HBV DNA bands, HepG2 cells, read-out: IC50): 5.42; Resistance Factor (M550I HBV baculovirus): 422; pIC50 ([3]; Hepatitis B virus, HepG2, WT, intracellular single-stranded HBV DNA, read-out: IC50, single experiments, IC SS): 7.17; IC50 ([3]; Hepatitis B virus, HepG2, read-out: IC50 (μM), EC RC, WT, extracellular relaxed circular HBV DNA): 0.018 µM; IC50 ([3]; Hepatitis B virus, HepG2, read-out: IC50 (μM), IC SS, WT, intracellular single-stranded HBV DNA): 0.0697 µM; pIC50 ([3]; WT, extracellular relaxed circular HBV DNA, read-out: IC50, single experiments, EC RC): 7.66 and 7.53 and 8.02; pIC50 ([3]; WT, intracellular single-stranded HBV DNA, read-out: IC50, single experiments, IC SS): 7.07 and 7.24; inhibition at 1 µM [4]: 99.6%; pIC50 [4]: 8.05; Resistance Factor [4]: 1

Question: With `Nc1nc2c(ncn2CCC(CO)CO)c(=O)[nH]1` [Penciclovir, 9-[4-hydroxy-3-(hydroxymethyl)but-1-yl]guanine] as the molecule, how does the IC50 ([1]; Hepatitis B virus, HepG2, Precore (G1896A), extracellular relaxed circular HBV DNA, averages where footnoted, read-out: IC50 (μM), EC RC) read?
Answer: 6 µM

Question: What about the IC50 ([1]; Hepatitis B virus, HepG2, Precore (G1896A), intracellular single-stranded HBV DNA, averages where footnoted, read-out: IC50 (μM), IC SS) of the same molecule?
Answer: 85 µM

Question: And the “sensitivity of G1896A HBV compared with wild type HBV” value ([1]; result in words)?
Answer: may be more sensitive

Question: And the “Resistance Factor” value (L526M HBV baculovirus; 526 (L526M) HBV, mutant IC50 divided by wt IC50, nearest integer)?
Answer: 9

Question: What about the “change in sensitivity of L526M compared to wild-type” value (L526M HBV baculovirus; FIG. 7A-7C, result in words) of the same molecule?
Answer: No significant change

Question: What about the pIC50 (L526M HBV baculovirus; HepG2) of the same molecule?
Answer: 3.99

Question: And the inhibition at 1 µM (L526M HBV baculovirus; HepG2, read-out: Inhibition at 1 μM)?
Answer: -3%

Question: And the “IC50 (μM), IC SS” value [5]?
Answer: NDR

Question: What about the “change in sensitivity of L526M/M550V” value ([2]; FIG. 8A-8C, result in words) of the same molecule?
Answer: no substantial change

Question: And the inhibition at 1 µM [2]?
Answer: -10%

Question: And the pIC50 [2]?
Answer: 3.43

Question: And the “Resistance Factor” value [2]?
Answer: 32

Question: And the inhibition at 1 µM (M550I HBV baculovirus; [10])?
Answer: -24%

Question: What about the IC50 (M550I HBV baculovirus; Hepatitis B virus, HepG2, 550 (M550I) HBV, ds HBV DNA bands, extrapolated value, read-out: IC50 (μM), extrapolated value) of the same molecule?
Answer: 1220 µM

Question: And the “Resistance Factor” value (M550I HBV baculovirus)?
Answer: 106

Question: What about the IC50 ([3]; Hepatitis B virus, HepG2, WT, extracellular relaxed circular HBV DNA, read-out: IC50 (μM), EC RC) of the same molecule?
Answer: 23 µM

Question: What about the IC50 ([3]; Hepatitis B virus, HepG2, WT, intracellular single-stranded HBV DNA, read-out: IC50 (μM), IC SS) of the same molecule?
Answer: 226 µM

Question: And the “IC50 (μM), EC RC” value [6, 11]?
Answer: NDR

Question: What about the “IC50 (μM), IC SS” value [6, 12] of the same molecule?
Answer: NDR

Question: And the “IC50 (μM), EC RC” value [7, 11]?
Answer: NDR

Question: What about the “IC50 (μM), IC SS” value [7, 12] of the same molecule?
Answer: NDR

Question: And the “resistance conferred by M550I or L526M/M550V changes” value [8]?
Answer: high degree of resistance

Question: What about the inhibition at 1 µM [4] of the same molecule?
Answer: 7%

Question: What about the pIC50 [4] of the same molecule?
Answer: 4.94

Question: What about the “effect on wild-type HBV replication” value ([4]; dose effect, FIG. 6, result in words) of the same molecule?
Answer: modest effect

Question: And the “Resistance Factor” value [4]?
Answer: 1

Question: And the “IC50 (μM), IC SS” value [9]?
Answer: NDR
